Data on 30 compounds can be found in patent publication US9920010B2, “CXCR7 receptor modulators” (IDORSIA PHARMACEUTICALS LTD, priority 2013, dated 2018).

T1 sequence (P25106 whole entry): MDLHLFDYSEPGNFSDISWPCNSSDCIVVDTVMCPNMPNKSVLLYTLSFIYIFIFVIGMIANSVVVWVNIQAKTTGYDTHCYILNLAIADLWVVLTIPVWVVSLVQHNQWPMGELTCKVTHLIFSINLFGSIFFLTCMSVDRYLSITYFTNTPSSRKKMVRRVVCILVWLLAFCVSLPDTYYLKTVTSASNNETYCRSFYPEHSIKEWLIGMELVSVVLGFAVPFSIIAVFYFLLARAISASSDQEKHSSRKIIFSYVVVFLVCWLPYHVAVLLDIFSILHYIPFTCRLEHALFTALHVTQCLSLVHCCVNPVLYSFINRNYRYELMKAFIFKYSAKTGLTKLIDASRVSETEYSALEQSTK
T1 sequence (P32121 whole entry partner): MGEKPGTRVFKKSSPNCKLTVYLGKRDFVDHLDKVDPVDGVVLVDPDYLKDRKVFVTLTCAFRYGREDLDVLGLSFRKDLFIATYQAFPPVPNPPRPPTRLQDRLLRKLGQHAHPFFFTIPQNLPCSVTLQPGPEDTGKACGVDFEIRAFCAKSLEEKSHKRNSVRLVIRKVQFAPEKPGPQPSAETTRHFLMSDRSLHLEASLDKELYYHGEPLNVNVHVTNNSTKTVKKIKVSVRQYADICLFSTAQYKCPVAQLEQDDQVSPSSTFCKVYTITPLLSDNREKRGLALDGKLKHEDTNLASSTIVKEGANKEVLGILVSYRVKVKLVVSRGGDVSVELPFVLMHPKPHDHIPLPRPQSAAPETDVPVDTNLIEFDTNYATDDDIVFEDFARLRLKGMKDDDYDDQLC

The assay has as its target T1, CXCR7 (Homo sapiens, UniProt P25106).
T1 construct: host or cells: CHO-K1 (PathHunter CHO-K1 CXCR7 b-arrestin cell line, stably transfected)
In words: PathHunter CHO-K1 CXCR7 b-arrestin recruitment assay (CXCR7 agonistic activity). It is filed as cell-based. Conditions: PathHunter CHO-K1 CXCR7 b-arrestin cell line. The essentials:
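Stable CHO-K1 line with C-terminally ProLink-tagged CXCR7 and β-arrestin 2–EA fusion; β-arrestin recruitment restores β-gal activity, read by chemiluminescence after 1 h RT detection. Cells seeded 24 h, starved in OPTIMEM 3–4 h, exposed to compounds 90 min at 37 °C in HBSS/HEPES/BSA. Geometric-mean EC50 from repeated measurements.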
(In general: Recruitment of arrestin is a read-out of receptor activation apart from second messengers.)
Usually EC50 stands for the concentration giving half of the maximal effect. For `Cc1cccnc1CN(CCC(C)(C)C)C(=O)CNc1cccc2c1CCN(CC1CC1)C2` [Example 276, 2-(2-Cyclopropylmethyl-1,2,3,4-tetrahydro-isoquinolin-5-ylamino)-N-(3,3-dimethyl-butyl)-N-(3-methyl-pyridin-2-ylmethyl)-acetamide], the response was half-maximal at 0.017 µM (EC50).

As to “2-(2-Cyclopropylmethyl-1,2,3,4-tetrahydro-isoquinolin-5-ylamino)-N-isoxazol-5-ylmethyl-N-(2-trifluoromethyl-benzyl)-acetamide [Example 250]”, the EC50 was determined as 0.031 µM.

With `COCCN1CCc2c(/C=C/C(=O)N(CCC(C)(C)C)Cc3ncccc3C)cccc2C1` [Example 320, (E)-N-(3,3-Dimethyl-butyl)-3-[2-(2-methoxy-ethyl)-1,2,3,4-tetrahydro-isoquinolin-5-yl]-N-(3-methyl-pyridin-2-ylmethyl)-acrylamide], the EC50 worked out at 0.154 µM. As for `CN1CCC(N(Cc2ccccc2)C(=O)CNc2cccc3c2CCN(CC2CC2)C3)C1` (racemic) [Example 180, rac-N-Benzyl-2-(2-cyclopropylmethyl-1,2,3,4-tetrahydro-isoquinolin-5-ylamino)-N-(1-methyl-pyrrolidin-3-yl)-acetamide], the figure is 0.008 µM; as for `CCCC(=O)N1CCc2c(cccc2NCC(=O)N(CCNC)Cc2ccccc2C(F)(F)F)C1` [compound 386, 2-(2-Butyryl-1,2,3,4-tetrahydro-isoquinolin-5-ylamino)-N-(2-methylamino-ethyl)-N-(2-trifluoromethyl-benzyl)-acetamide], 0.012 µM. As for `CC(C)(C)OC(=O)N1CCN(CCN(Cc2ccccc2C(F)(F)F)C(=O)CNc2cccc3c2CCN(CC2CC2)C3)CC1` [Example 216, 4-{2-[[2-(2-Cyclopropylmethyl-1,2,3,4-tetrahydro-isoquinolin-5-ylamino)-acetyl]-(2-trifluoromethyl-benzyl)-amino]-ethyl}-piperazine-1-carboxylic acid tert-butyl ester], the figure is 0.034 µM; as for `C=CCN1CCc2cccc(NCC(=O)N(CCN(C)C)Cc3ccccc3C(F)(F)F)c2C1` [compound 466, 2-(2-Allyl-1,2,3,4-tetrahydro-isoquinolin-8-ylamino)-N-(2-dimethylamino-ethyl)-N-(2-trifluoromethyl-benzyl)-acetamide], 0.013 µM; as for `CN(C)CCN(Cc1ccccc1)C(=O)CNc1cccc2c1CCN(C(=O)Oc1ccccc1)C2` [compound 130], 0.39 µM. Compound `CN(CCN(Cc1ncccc1C(F)(F)F)C(=O)CNc1cccc2c1CCN(CC1CC1)C2)C(=O)OC(C)(C)C` [Example 215, {2-[[2-(2-Cyclopropylmethyl-1,2,3,4-tetrahydro-isoquinolin-5-ylamino)-acetyl]-(3-trifluoromethyl-pyridin-2-ylmethyl)-amino]-ethyl}-methyl-carbamic acid tert-butyl ester] had an EC50 of 0.108 µM. As for `CCN1CCc2cccc(NCC(=O)N(CCNC)Cc3ccccc3)c2C1` [compound 443], the figure is 0.147 µM; as for `CN(C)CCN(Cc1ncccc1C(F)(F)F)C(=O)CNc1cccc2c1CCN(C1CCC1)C2` [Example 366, 2-(2-Cyclobutyl-1,2,3,4-tetrahydro-isoquinolin-5-ylamino)-N-(2-dimethylamino-ethyl)-N-(3-trifluoromethyl-pyridin-2-ylmethyl)-acetamide], 0.002 µM.

Regarding `CCN1CCc2cccc(NCC(=O)N(CCN(C)C)Cc3ncccc3C(F)(F)F)c2C1` [compound 531, N-(2-Dimethylamino-ethyl)-2-(2-ethyl-1,2,3,4-tetrahydro-isoquinolin-8-ylamino)-N-(3-trifluoromethyl-pyridin-2-ylmethyl)-acetamide], the EC50 worked out at 0.006 µM.

The compound `CC(C)(C)OC(=O)N1CCC(N(Cc2ccccc2C(F)(F)F)C(=O)CNc2cccc3c2CCN(CC2CC2)C3)CC1` [Example 252, 4-[[2-(2-Cyclopropylmethyl-1,2,3,4-tetrahydro-isoquinolin-5-ylamino)-acetyl]-(2-trifluoromethyl-benzyl)-amino]-piperidine-1-carboxylic acid tert-butyl ester] had an EC50 of 0.426 µM.

Consider `CCC(=O)N1CCc2c(cccc2NCC(=O)N(CCN(C)C)Cc2cccc(OC)c2)C1` [Example 29, N-(2-Dimethylamino-ethyl)-N-(3-methoxy-benzyl)-2-(2-propionyl-1,2,3,4-tetrahydro-isoquinolin-5-ylamino)-acetamide], for which a half-maximal response (EC50) required 0.174 µM. The value for `CC(C)N(CCN(Cc1ccccc1C(F)(F)F)C(=O)CNc1cccc2c1CCN(CC1CC1)C2)C(C)C` [Example 219, 2-(2-Cyclopropylmethyl-1,2,3,4-tetrahydro-isoquinolin-5-ylamino)-N-(2-diisopropylamino-ethyl)-N-(2-trifluoromethyl-benzyl)-acetamide] was 0.003 µM. As for `O=C(CNc1cccc2c1CCN(CC1CC1)C2)N(Cc1cncs1)Cc1ccccc1C(F)(F)F` [Example 247, 2-(2-Cyclopropylmethyl-1,2,3,4-tetrahydro-isoquinolin-5-ylamino)-N-thiazol-5-ylmethyl-N-(2-trifluoromethyl-benzyl)-acetamide], the figure is 0.029 µM; as for `CC1c2cccc(NCC(=O)N(CCN(C)C)Cc3ccccc3C(F)(F)F)c2CCN1CC1CC1` (racemic) [Example 211, rac-2-((2-(Cyclopropylmethyl)-1-methyl-1,2,3,4-tetrahydroisoquinolin-5-yl)amino)-N-(2-(dimethylamino)ethyl)-N-(2-(trifluoromethyl)benzyl)acetamide], 0.002 µM; as for `CCN1CCc2c(/C=C/C(=O)N(CCN(C)C)Cc3ccccc3Cl)cccc2C1` [compound 145, (E)-N-(2-Chloro-benzyl)-N-(2-dimethylamino-ethyl)-3-(2-ethyl-1,2,3,4-tetrahydro-isoquinolin-5-yl)-acrylamide], 0.008 µM. The value for `CN(C)CCN(Cc1ccccc1C(F)(F)F)C(=O)CNc1cccc2c1CCN(C(=O)[C@H]1C[C@H]1F)C2` (racemic) [Example 363, rac-N-(2-Dimethylamino-ethyl)-2-[2-((1R*,2R*)-2-fluoro-cyclopropanecarbonyl)-1,2,3,4-tetrahydro-isoquinolin-5-ylamino]-N-(2-trifluoromethyl-benzyl)-acetamide] was 0.003 µM. For the compound `NCCN(Cc1ccc(C(F)(F)F)cc1)C(=O)CNc1cccc2c1CCN(CC1CC1)C2` [Example 73, N-(2-Amino-ethyl)-2-(2-cyclopropylmethyl-1,2,3,4-tetrahydro-isoquinolin-5-ylamino)-N-(4-trifluoromethyl-benzyl)-acetamide], the response was half-maximal at 0.066 µM (EC50).

In turn, `CN(C)CCN(Cc1ncccc1Cl)C(=O)CNc1cccc2c1CN(CC1CC1)CC2` [compound 485, N-(3-Chloro-pyridin-2-ylmethyl)-2-(2-cyclopropylmethyl-1,2,3,4-tetrahydro-isoquinolin-8-ylamino)-N-(2-dimethylamino-ethyl)-acetamide] had an EC50 of 0.008 µM. For `CC(C)(O)CN(Cc1ncccc1Cl)C(=O)/C=C/c1cccc2c1CCN(C(=O)[C@H]1C[C@H]1F)C2` (racemic) [Example 331, rac-(E)-N-(3-Chloro-pyridin-2-ylmethyl)-3-[2-((1R*,2R*)-2-fluoro-cyclopropanecarbonyl)-1,2,3,4-tetrahydro-isoquinolin-5-yl]-N-(2-hydroxy-2-methyl-propyl)-acrylamide], it took 0.314 µM to reach a half-maximal effect (EC50). As for `COCCN1CCc2c(/C=C/C(=O)N(CCN(C)C)Cc3ccccc3C(F)(F)F)cccc2C1` [Example 317, (E)-N-(2-Dimethylamino-ethyl)-3-[2-(2-methoxy-ethyl)-1,2,3,4-tetrahydro-isoquinolin-5-yl]-N-(2-trifluoromethyl-benzyl)-acrylamide], the figure is 0.005 µM; as for `CN(C)CCN(CCc1ccccc1)C(=O)CNc1cccc2c1CCN(CC1CC1)C2` [Example 36, 2-(2-Cyclopropylmethyl-1,2,3,4-tetrahydro-isoquinolin-5-ylamino)-N-(2-dimethylamino-ethyl)-N-phenethyl-acetamide], 0.025 µM. `CCC(=O)N1CCc2c(cccc2NCC(=O)N(CCN2CCCC2)Cc2ccccc2)C1` [Example 24, N-Benzyl-2-(2-propionyl-1,2,3,4-tetrahydro-isoquinolin-5-ylamino)-N-(2-pyrrolidin-1-yl-ethyl)-acetamide] gave an EC50 of 0.028 µM.

Take `CCN1CCc2cccc(NCC(=O)N(CCN(C)C)Cc3ncccc3Cl)c2C1` [compound 511, N-(3-Chloro-pyridin-2-ylmethyl)-N-(2-dimethylamino-ethyl)-2-(2-ethyl-1,2,3,4-tetrahydro-isoquinolin-8-ylamino)-acetamide]: the EC50 is 0.029 µM.

On to `CN(C)CCN(Cc1ccccc1C(F)(F)F)C(=O)CNc1cccc2c1CCN(C1CCC1)C2` [Example 352, 2-(2-Cyclobutyl-1,2,3,4-tetrahydro-isoquinolin-5-ylamino)-N-(2-dimethylamino-ethyl)-N-(2-trifluoromethyl-benzyl)-acetamide], for which the EC50 stood at 0.004 µM.

`O=C(/C=C/c1cccc2c1CCN(C(=O)[C@H]1C[C@H]1F)C2)N(CCN1CCC(F)(F)CC1)Cc1ncccc1Cl` (racemic) [Example 332, rac-(E)-N-(3-Chloro-pyridin-2-ylmethyl)-N-[2-(4,4-difluoro-piperidin-1-yl)-ethyl]-3-[2-((1R*,2R*)-2-fluoro-cyclopropanecarbonyl)-1,2,3,4-tetrahydro-isoquinolin-5-yl]-acrylamide] had an EC50 of 0.096 µM.

As for `CCN1CCc2cccc(NCC(=O)N(CCN(C)C)Cc3ccccc3OC)c2C1` [compound 497], the EC50 was 0.077 µM. As for `CC(C)(O)CN(Cc1ncccc1Cl)C(=O)/C=C/c1cccc2c1CCN(CC1CC1)C2` [Example 329, (E)-N-(3-Chloro-pyridin-2-ylmethyl)-3-(2-cyclopropylmethyl-1,2,3,4-tetrahydro-isoquinolin-5-yl)-N-(2-hydroxy-2-methyl-propyl)-acrylamide], the figure is 0.023 µM.
